Results reported in US20120165304A1, “6,7,8,9-Tetrahydro-5H-1,4,7,10a-tetraaza-cyclohept[f]indene derivatives, pharmaceutical compositions containing these compounds, their use and processes for preparing them” (BOEHRINGER INGELHEIM INTERNATIONAL GMBH, priority 2008, published 2012).

Molecular target: human 5-HT2C receptor (Homo sapiens, UniProt P28335, I156V/I160V/N158S)
Test: cell-based

human 5-HT2C receptor, sequence (P28335 33-458 I156V/N158S/I160V limits assumed): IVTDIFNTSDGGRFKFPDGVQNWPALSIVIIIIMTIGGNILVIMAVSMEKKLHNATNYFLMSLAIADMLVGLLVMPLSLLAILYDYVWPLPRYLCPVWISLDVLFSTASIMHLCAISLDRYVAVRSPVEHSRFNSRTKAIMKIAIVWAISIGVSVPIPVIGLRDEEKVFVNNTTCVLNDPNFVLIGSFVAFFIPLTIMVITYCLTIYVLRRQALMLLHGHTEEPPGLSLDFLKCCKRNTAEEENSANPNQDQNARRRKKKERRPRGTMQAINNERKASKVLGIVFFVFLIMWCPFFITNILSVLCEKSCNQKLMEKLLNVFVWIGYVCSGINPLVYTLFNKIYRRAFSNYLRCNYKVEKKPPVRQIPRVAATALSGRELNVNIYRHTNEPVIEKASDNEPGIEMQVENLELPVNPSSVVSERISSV

Row | SMILES | EC50 [nM]
1 | CC(C)(C)NC1CCN(C(=O)C2CN(c3c4c(nc5ccnn35)CCNCC4)C2)CC1 [Example 37.22] | 2
2 | O=C(NCCc1ccccc1)C1CN(c2c3c(nc4ccnn24)CCNCC3)C1 [Example 31.21] | 727
3 | CC(C)C(NC(=O)C1CN(c2c3c(nc4ccnn24)CCNCC3)C1)C(F)(F)F (centres unmarked) [Example 37.104] | 106
4 | Cc1ccc(OCC2CN(c3c4c(nc5ccnn35)CCNCC4)C2)cc1 [Example 15.18] | 140
5 | Cc1ccc2c(c1)N(C(=O)C1CN(c3c4c(nc5ccnn35)CCNCC4)C1)CC2 [Example 31.176] | 95
6 | Brc1cnn2c(N3CCC3)c3c(nc12)CCNCC3 [Example 2, 10-Azetidin-1-yl-3-bromo-6,7,8,9-tetrahydro-5H-1,4,7,10a-tetraaza-cyclohepta[f]indene] | 4
7 | Cn1c(C2CN(c3c4c(nc5ccnn35)CCNCC4)C2)nc2ccc(F)cc21 [Example 34.4] | 24
8 | CC1(C(=O)N2CCc3c(cccc3C(F)(F)F)C2)CN(c2c3c(nc4ccnn24)CCNCC3)C1 [Example 32.3] | 1960
9 | O=C(NCc1ccc(OC(F)F)cc1)C1CN(c2c3c(nc4ccnn24)CCNCC3)C1 [Example 37.97] | 8
10 | O=C(NCC1CCOC1)C1CN(c2c3c(nc4ccnn24)CCNCC3)C1 (centres unmarked) [Example 37.61] | 64
11 | CCc1ccc(CN(C)C(=O)C2CN(c3c4c(nc5ccnn35)CCNCC4)C2)cc1 [Example 31.170] | 64
12 | C#CCCN(CC(C)C)C(=O)C1CN(c2c3c(nc4ccnn24)CCNCC3)C1 [Example 31.106] | 184
13 | COc1ccc(OC2CN(c3c4c(nc5ccnn35)CCNCC4)C2)cc1OC [Example 35.49] | 137
14 | COCCNC(=O)C1CN(c2c3c(nc4ccnn24)CCNCC3)C1 [Example 37.73] | 88
15 | CC1(C)CCN(C(=O)C2CN(c3c4c(nc5ccnn35)CCNCC4)C2)CC1 [Example 31.47] | 21
16 | CCOc1ccc(OC2CN(c3c4c(nc5ccnn35)CCNCC4)C2)cc1 [Example 35.53] | 324
17 | C#CC1CCN(C(=O)C2CN(c3c4c(nc5ccnn35)CCNCC4)C2)C1 (centres unmarked) [Example 38, (3-Ethynyl-pyrrolidin-1-yl)-[1-(6,7,8,9-tetrahydro-5H-1,4,7,10a-tetraaza-cyclohepta[f]inden-10-yl)-azetidin-3-yl]-methanone] | 6
18 | O=C(NCCCC(F)(F)F)C1CN(c2c3c(nc4ccnn24)CCNCC3)C1 [Example 37.66] | 42
19 | O=C(C1CN(c2c3c(nc4ccnn24)CCNCC3)C1)N1CCCC(c2cccc(F)c2)C1 (centres unmarked) [Example 31.215] | 155
20 | CCN1CCCC1CNC(=O)C1CN(c2c3c(nc4ccnn24)CCNCC3)C1 (centres unmarked) [Example 37.90] | 12
21 | O=C(C1CN(c2c3c(nc4ccnn24)CCNCC3)C1)N1CCC(Nc2ccccc2)CC1 [Example 37.43] | 6
22 | CN1C2CCC1CC(NC(=O)C1CN(c3c4c(nc5ccnn35)CCNCC4)C1)C2 (centres unmarked) [Example 37.93] | 12
23 | CN1CCc2nc3ccnn3c(N3CC(C(=O)NCCCC(F)(F)F)C3)c2CC1 [Example 36.47] | 130
24 | CN(Cc1cccc(C(F)(F)F)c1)C(=O)C1CN(c2c3c(nc4ccnn24)CCNCC3)C1 [Example 31.149] | 45
25 | CN(Cc1ccccc1Cl)C(=O)C1CN(c2c3c(nc4ccnn24)CCNCC3)C1 [Example 31.37] | 68
26 | CCOc1ccccc1OC1CN(c2c3c(nc4ccnn24)CCNCC3)C1 [Example 35.37] | 47

Row | SMILES | EC50 [nM]
27 | CCN(Cc1ccccc1)C(=O)C1CN(c2c3c(nc4ccnn24)CCNCC3)C1 [Example 31.23] | 346
28 | O=C(C1CN(c2c3c(nc4ccnn24)CCNCC3)C1)N1CCCCC1 [Example 31.15] | 342
29 | O=C(C1CN(c2c3c(nc4ccnn24)CCNCC3)C1)N1CCC(N2CCCC2)CC1 [Example 37.5] | 2
30 | COc1cccc(OC2CN(c3c4c(nc5ccnn35)CCNCC4)C2)c1 [Example 35.47] | 66
31 | CC(=O)NC1CCN(C(=O)C2CN(c3c4c(nc5ccnn35)CCNCC4)C2)C1 (centres unmarked) [Example 37.27] | 14
32 | O=C(C1CN(c2c3c(nc4ccnn24)CCNCC3)C1)N1CCC(N2CCOCC2)CC1 [Example 37.19] | 5
33 | O=C(C1CN(c2c3c(nc4ccnn24)CCNCC3)C1)N1CC[C@H]2CCCC[C@@H]2C1 [Example 31.130] | 57
34 | CN(Cc1cccc(F)c1)C(=O)C1CN(c2c3c(nc4ccnn24)CCNCC3)C1 [Example 31.125] | 38
35 | CN(Cc1ccccc1Br)C(=O)C1CN(c2c3c(nc4ccnn24)CCNCC3)C1 [Example 31.78] | 83
36 | O=C(C1CCCC1)N1CCN(C(=O)C2CN(c3c4c(nc5ccnn35)CCNCC4)C2)CC1 [Example 37.87] | 9
37 | CN(CCC1CCCCC1)C(=O)C1CN(c2c3c(nc4ccnn24)CCNCC3)C1 [Example 31.84] | 126
38 | COc1ccc(Cl)c(OCC2CN(c3c4c(nc5ccnn35)CCNCC4)C2)c1 [Example 15.27] | 7
39 | Clc1ccccc1OCC1CN(c2c3c(nc4ccnn24)CCNCC3)C1 [Example 15.6] | 5
40 | COc1ccc2c(c1)CCN2C(=O)C1CN(c2c3c(nc4ccnn24)CCNCC3)C1 [Example 31.218] | 40
41 | CCC1CCC(C)N(C(=O)C2CN(c3c4c(nc5ccnn35)CCNCC4)C2)C1 (centres unmarked) [Example 31.184] | 287
42 | O=C(C1CN(c2c3c(nc4ccnn24)CCNCC3)C1)N1CCC2(CCC2)C1 [Example 31.56] | 43
43 | CC#CCN(CC(C)C)C(=O)C1CN(c2c3c(nc4ccnn24)CCNCC3)C1 [Example 31.104] | 215
44 | C#CC1CCN(C(=O)C2CN(c3c4c(nc5ccnn35)CCN(C)CC4)C2)C1 (centres unmarked) [Example 39, (3-Ethynyl-pyrrolidin-1-yl)-[1-(7-methyl-6,7,8,9-tetrahydro-5H-1,4,7,10a-tetraaza-cyclohept[f]inden-10-yl)-azetidin-3-yl]-methanone] | 78
45 | Cc1cc(C#N)cc(C)c1OC1CN(c2c3c(nc4ccnn24)CCNCC3)C1 [Example 35.15] | 20
46 | O=C(C1CN(c2c3c(nc4ccnn24)CCNCC3)C1)N1CCC(c2ccc(F)cc2F)CC1 [Example 31.114] | 38
47 | CN(C)CCCN(C)C(=O)C1CN(c2c3c(nc4ccnn24)CCNCC3)C1 [Example 37.41] | 8
48 | Cc1ccccc1OCC1CN(c2c3c(nc4ccnn24)CCNCC3)C1 [Example 15.1] | 6
49 | O=C(C1CN(c2c3c(nc4ccnn24)CCNCC3)C1)N1CC2CCCC2C1 (centres unmarked) [Example 31.166] | 97
50 | CCC1CCN(C(=O)C2CN(c3c4c(nc5ccnn35)CCNCC4)C2)CC1 [Example 31.68] | 46
51 | CC(=O)N(C)c1ccc(OC2CN(c3c4c(nc5ccnn35)CCNCC4)C2)cc1 [Example 35.28] | 189
52 | CCCCn1c(C2CN(c3c4c(nc5ccnn35)CCNCC4)C2)nc2ccccc21 [Example 34.26] | 1150

Row | SMILES | EC50 [nM]
53 | COc1cc(C)cc(OCC2CN(c3c4c(nc5ccnn35)CCNCC4)C2)c1 [Example 15.22] | 141
54 | CN(Cc1cccc(Cl)c1Cl)C(=O)C1CN(c2c3c(nc4ccnn24)CCNCC3)C1 [Example 31.168] | 107
55 | O=C(C1CN(c2c3c(nc4c(Br)cnn24)CCNCC3)C1)N1CCC2(CCC2)C1 [Example 31.133] | 60
56 | CN1CCc2nc3ccnn3c(N3CC(C(=O)N4CCC(C#N)C4)C3)c2CC1 (centres unmarked) [Example 36.44] | 214
57 | CCN1CCN(C(=O)C2CN(c3c4c(nc5ccnn35)CCN(C)CC4)C2)CC1 [Example 36.1, (4-Ethyl-piperazin-1-yl)-[1-(7-methyl-6,7,8,9-tetrahydro-5H-1,4,7,10a-tetraaza-cyclohepta[f]inden-10-yl)-azetidin-3-yl]-methanone] | 69
58 | CC(C)C1(O)CCN(C(=O)C2CN(c3c4c(nc5ccnn35)CCN(C)CC4)C2)CC1 [Example 36.26] | 191
59 | CN(Cc1cccs1)C(=O)C1CN(c2c3c(nc4ccnn24)CCNCC3)C1 [Example 31.43] | 35
60 | CN1CCC2(CCN(c3c4c(nc5ccnn35)CCNCC4)CC2)C1=O [Example 1.66] | 1660
61 | Fc1cccc(F)c1OC1CN(c2c3c(nc4ccnn24)CCNCC3)C1 [Example 35.41] | 9
62 | C#CCCNC(=O)C1CN(c2c3c(nc4ccnn24)CCNCC3)C1 [Example 37.48] | 141
63 | FC(F)(F)c1cccc(OC2CN(c3c4c(nc5ccnn35)CCNCC4)C2)n1 [Example 20.10] | 181
64 | O=C(NC1CCCCC1)C1CN(c2c3c(nc4ccnn24)CCNCC3)C1 [Example 37.71] | 114
65 | c1cc2nc3c(c(N4CC(OCC5CCCCC5)C4)n2n1)CCNCC3 [Example 20.4] | 543
66 | CCCC1CCN(C(=O)C2CN(c3c4c(nc5ccnn35)CCNCC4)C2)CC1 [Example 31.69] | 36
67 | Clc1cccnc1OC1CN(c2c3c(nc4ccnn24)CCNCC3)C1 [Example 20.11] | 116
68 | CC1CNCCc2nc3ccnn3c(N3CCC3)c21 (centres unmarked) [Example 5, 10-Azetidin-1-yl-9-methyl-6,7,8,9-tetrahydro-5H-1,4,7,10a-tetraaza-cyclohepta[f]indene] | 570
69 | Cc1cnn2c(N3CC(C(=O)N4c5ccccc5CC4C)C3)c3c(nc12)CCNCC3 (centres unmarked) [Example 31.241] | 84
70 | CN(C)C1CCN(C(=O)C2CN(c3c4c(nc5ccnn35)CCNCC4)C2)CC1 [Example 37.2] | 1
71 | Cc1ccc(CN(C)C(=O)C2CN(c3c4c(nc5ccnn35)CCNCC4)C2)cc1 [Example 31.50] | 51
72 | O=C(C1CN(c2c3c(nc4ccnn24)CCNCC3)C1)N1CCc2c(F)cccc2C1 [Example 31.204] | 33
73 | O=C(C1CN(c2c3c(nc4ccnn24)CCNCC3)C1)N1CCC(F)(F)CC1 [Example 31.203] | 67
74 | O=C(C1CN(c2c3c(nc4ccnn24)CCNCC3)C1)N1CCC(c2cccc(F)c2)CC1 [Example 31.211] | 31
75 | c1cncc(OC2CN(c3c4c(nc5ccnn35)CCNCC4)C2)c1 [Example 35.42] | 212
76 | O=C(NCC1CC1)C1CN(c2c3c(nc4ccnn24)CCNCC3)C1 [Example 37.75] | 137
77 | CC1(C(=O)N2CCC(C(F)(F)F)CC2)CN(c2c3c(nc4ccnn24)CCNCC3)C1 [Example 32.2] | 8290
